Source: ChEMBL document CHEMBL2163339, “Discovery of potent inhibitors of human and mouse fatty acid amide hydrolases” (J Med Chem, 2012)
Active and inactive are the calls of the source.

Assays:
[1] = target: T1, Fatty-acid amide hydrolase 1 (Mus musculus, UniProt O08914); experiment: Inhibition of mouse FAAH isolated from brain homogenate using [3H-ethanolamine]AEA as substrate incubated for 20 mins prior to substrate addition measured after 15 mins by beta counting analysis
T1 sequence (O08914 whole entry): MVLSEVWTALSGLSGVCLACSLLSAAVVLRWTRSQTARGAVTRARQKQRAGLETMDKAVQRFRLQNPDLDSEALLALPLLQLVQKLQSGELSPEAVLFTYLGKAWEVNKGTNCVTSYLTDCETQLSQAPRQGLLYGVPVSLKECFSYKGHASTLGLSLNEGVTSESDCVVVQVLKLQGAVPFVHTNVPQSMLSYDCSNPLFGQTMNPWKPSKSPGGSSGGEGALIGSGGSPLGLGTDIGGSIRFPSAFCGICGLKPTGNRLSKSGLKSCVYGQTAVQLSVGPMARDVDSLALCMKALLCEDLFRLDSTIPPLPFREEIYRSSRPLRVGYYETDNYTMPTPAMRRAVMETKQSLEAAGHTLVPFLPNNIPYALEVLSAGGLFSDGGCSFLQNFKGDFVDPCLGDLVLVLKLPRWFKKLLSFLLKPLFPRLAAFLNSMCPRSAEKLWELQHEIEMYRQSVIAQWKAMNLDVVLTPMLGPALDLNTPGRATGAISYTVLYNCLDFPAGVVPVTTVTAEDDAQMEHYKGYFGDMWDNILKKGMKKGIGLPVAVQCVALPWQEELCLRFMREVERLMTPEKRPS

[2] = target: T2, Fatty-acid amide hydrolase 1 (Mus musculus) (UniProt O08914); experiment: Reversible inhibition of mouse FAAH isolated from brain homogenate using [3H-ethanolamine]AEA as substrate incubated for 20 mins prior to substrate addition measured after 18 hrs by […] method
T2 sequence (whole entry): T1 sequence (O08914 whole entry)

[3] = test system: Rattus norvegicus; experiment: Analgesic activity in rat assessed as increase in paw withdrawal threshold at 100 mg/kg, po; format: functional, organism-based; set-up: dose 100 mg/kg
[4] = test system: Rattus norvegicus; experiment: Analgesic activity in rat assessed as increase in paw withdrawal threshold at 30 mg/kg, po; format: functional, organism-based; set-up: dose 30 mg/kg
[5] = test system: Mus musculus; experiment: Anxiolytic activity in mouse at 30 mg/kg, po measured for 5 mins by elevated plus maze test; format: organism-based; set-up: dose 30 mg/kg, route oral; conditions: in vivo
[6] = test system: Rattus norvegicus; experiment: Analgesic activity in rat assessed as increase in paw withdrawal threshold at 10 mg/kg, po; format: functional, organism-based; set-up: dose 10 mg/kg
[7] = test system: Mus musculus; experiment: Anxiolytic activity in mouse at 10 mg/kg, po measured for 5 mins by elevated plus maze test; format: organism-based; set-up: dose 10 mg/kg, route oral; conditions: in vivo
[8] = test system: Mus musculus; experiment: Toxicity against CD1 mouse assessed as limbic/striatal stereotypies at 100 mg/kg, po at 240 mins by Irwin test; format: organism-based; set-up: dose 100 mg/kg, route oral; conditions: in vivo, 4 h
[9] = test system: Mus musculus; experiment: Anxiolytic activity in mouse at 3 mg/kg, po measured for 5 mins by elevated plus maze test; format: organism-based; set-up: dose 3 mg/kg, route oral; conditions: in vivo
[10] = test system: Mus musculus; experiment: Toxicity against CD1 mouse assessed as limbic/striatal stereotypies at 30 mg/kg, po at 240 mins by Irwin test; format: organism-based; set-up: dose 30 mg/kg, route oral; conditions: in vivo, 4 h
[11] = test system: Mus musculus; experiment: Toxicity against CD1 mouse assessed as limbic/striatal stereotypies at 10 mg/kg, po at 240 mins by Irwin test; format: organism-based; set-up: dose 10 mg/kg, route oral; conditions: in vivo, 4 h
[12] = test system: Mus musculus; experiment: Toxicity against CD1 mouse assessed as limbic/striatal stereotypies at 30 mg/kg, po at 60 mins by Irwin test; format: organism-based; set-up: dose 30 mg/kg, route oral; conditions: in vivo, 1 h
[13] = test system: Mus musculus; experiment: Toxicity against CD1 mouse assessed as limbic/striatal stereotypies at 100 mg/kg, po at 60 mins by Irwin test; format: organism-based; set-up: dose 100 mg/kg, route oral; conditions: in vivo, 1 h
[14] = test system: Mus musculus; experiment: Toxicity against CD1 mouse assessed as limbic/striatal stereotypies at 10 mg/kg, po at 60 mins by Irwin test; format: organism-based; set-up: dose 10 mg/kg, route oral; conditions: in vivo, 1 h
[15] = target: T3, Monoglyceride lipase (Mus musculus) (UniProt O35678); experiment: Inhibition of MAGL-mediated 2AG hydrolysis in mouse brain homogenate using [3H]2OG as substrate incubated for 20 mins prior to substrate addition; format: tissue-based
T3 sequence (whole entry): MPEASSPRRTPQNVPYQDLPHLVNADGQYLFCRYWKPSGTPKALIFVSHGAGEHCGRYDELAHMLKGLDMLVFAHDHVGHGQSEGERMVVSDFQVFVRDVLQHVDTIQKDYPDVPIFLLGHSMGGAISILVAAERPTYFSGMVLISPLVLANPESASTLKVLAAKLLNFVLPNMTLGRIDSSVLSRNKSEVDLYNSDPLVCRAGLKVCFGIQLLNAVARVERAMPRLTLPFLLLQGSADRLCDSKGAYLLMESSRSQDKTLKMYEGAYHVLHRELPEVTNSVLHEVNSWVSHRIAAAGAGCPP

[16] = species: Mus musculus; experiment: Inhibition of DAGL-mediated 2AG synthesis in mouse brain homogenate using […] as substrate incubated for 20 mins prior to substrate addition; format: tissue-based
[17] = target: T4, N-acyl-phosphatidylethanolamine-hydrolyzing phospholipase D (Mus musculus) (UniProt Q8BH82); experiment: Inhibition of NAPE-PLD-meidated AEA synthesis in mouse brain homogenate using [3H]NArPE as substrate incubated for 20 mins prior to substrate addition; format: tissue-based
T4 sequence (whole entry): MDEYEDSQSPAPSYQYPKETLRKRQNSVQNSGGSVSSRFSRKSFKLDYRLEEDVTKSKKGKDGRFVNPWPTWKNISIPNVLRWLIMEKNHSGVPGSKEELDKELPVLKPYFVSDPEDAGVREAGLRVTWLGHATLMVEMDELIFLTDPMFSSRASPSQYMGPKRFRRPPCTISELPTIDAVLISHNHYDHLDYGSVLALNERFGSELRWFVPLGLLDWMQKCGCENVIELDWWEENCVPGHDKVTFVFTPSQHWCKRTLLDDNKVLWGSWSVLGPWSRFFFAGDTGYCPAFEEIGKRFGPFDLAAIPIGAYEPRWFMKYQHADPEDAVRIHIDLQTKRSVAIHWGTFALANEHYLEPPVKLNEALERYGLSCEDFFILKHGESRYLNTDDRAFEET

[18] = target: Transient receptor potential cation channel subfamily V member 1 (Mus musculus) (UniProt Q704Y3); experiment: Displacement of [3H]RTX from TRPV1 receptor in mouse brain fraction; format: tissue-based
[19] = target: Cannabinoid receptor 2 (Mus musculus) (UniProt P47936); experiment: Displacement of [3H]CP55.940 from CB2 receptor in mouse spleen fraction; format: tissue-based
[20] = target: Cannabinoid receptor 1 (Mus musculus) (UniProt P47746); experiment: Displacement of [3H]CP55.940 from CB1 receptor in mouse brain fraction; format: tissue-based
[21] = target: T5, Fatty-acid amide hydrolase 1 (Homo sapiens, UniProt O00519); experiment: Inhibition of human recombinant FAAH
T5 sequence (O00519 whole entry): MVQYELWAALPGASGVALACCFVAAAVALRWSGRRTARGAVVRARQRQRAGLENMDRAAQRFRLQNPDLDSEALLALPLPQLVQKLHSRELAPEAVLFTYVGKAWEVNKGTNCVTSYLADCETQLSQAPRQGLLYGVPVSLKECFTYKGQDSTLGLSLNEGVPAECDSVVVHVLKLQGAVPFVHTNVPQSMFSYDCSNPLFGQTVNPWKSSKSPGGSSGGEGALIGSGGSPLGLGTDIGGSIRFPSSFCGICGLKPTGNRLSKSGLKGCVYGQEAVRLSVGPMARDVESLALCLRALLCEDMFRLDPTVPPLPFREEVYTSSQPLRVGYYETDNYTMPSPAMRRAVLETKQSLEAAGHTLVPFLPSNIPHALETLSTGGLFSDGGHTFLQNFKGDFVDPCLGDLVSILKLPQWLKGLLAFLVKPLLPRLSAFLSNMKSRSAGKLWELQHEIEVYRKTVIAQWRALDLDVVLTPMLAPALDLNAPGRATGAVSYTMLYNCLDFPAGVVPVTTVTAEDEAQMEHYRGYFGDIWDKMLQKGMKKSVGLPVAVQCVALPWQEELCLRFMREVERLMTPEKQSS

[22] = target: Voltage-gated inwardly rectifying potassium channel KCNH2 (Homo sapiens, UniProt Q12809); experiment: Inhibition of human ERG expressed in CHOK1 cells for 5 mins by automated patch clamp assay; format: cell-based, CHO-K1
[23] = target: T2, Fatty-acid amide hydrolase 1 (Mus musculus); experiment: Non-competitive inhibition of mouse FAAH isolated from brain homogenate using [3H-ethanolamine]AEA as substrate by Lineweaver-Burk plot analysis

Chain of Cannabinoid receptor 1 (Mus musculus) (P47746 whole entry): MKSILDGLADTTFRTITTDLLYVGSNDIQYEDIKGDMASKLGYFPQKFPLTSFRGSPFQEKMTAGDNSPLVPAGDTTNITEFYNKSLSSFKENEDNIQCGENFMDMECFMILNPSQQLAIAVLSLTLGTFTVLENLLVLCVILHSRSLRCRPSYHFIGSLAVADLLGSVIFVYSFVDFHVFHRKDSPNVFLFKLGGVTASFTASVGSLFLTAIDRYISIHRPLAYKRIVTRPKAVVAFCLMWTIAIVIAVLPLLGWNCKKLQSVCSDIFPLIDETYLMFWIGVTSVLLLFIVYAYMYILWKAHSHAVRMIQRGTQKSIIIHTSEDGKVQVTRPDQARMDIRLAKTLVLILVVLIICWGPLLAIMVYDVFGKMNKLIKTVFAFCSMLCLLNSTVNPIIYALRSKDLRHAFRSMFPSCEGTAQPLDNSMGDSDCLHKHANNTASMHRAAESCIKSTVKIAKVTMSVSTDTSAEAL
Chain of Transient receptor potential cation channel subfamily V member 1 (Mus musculus) (Q704Y3 whole entry): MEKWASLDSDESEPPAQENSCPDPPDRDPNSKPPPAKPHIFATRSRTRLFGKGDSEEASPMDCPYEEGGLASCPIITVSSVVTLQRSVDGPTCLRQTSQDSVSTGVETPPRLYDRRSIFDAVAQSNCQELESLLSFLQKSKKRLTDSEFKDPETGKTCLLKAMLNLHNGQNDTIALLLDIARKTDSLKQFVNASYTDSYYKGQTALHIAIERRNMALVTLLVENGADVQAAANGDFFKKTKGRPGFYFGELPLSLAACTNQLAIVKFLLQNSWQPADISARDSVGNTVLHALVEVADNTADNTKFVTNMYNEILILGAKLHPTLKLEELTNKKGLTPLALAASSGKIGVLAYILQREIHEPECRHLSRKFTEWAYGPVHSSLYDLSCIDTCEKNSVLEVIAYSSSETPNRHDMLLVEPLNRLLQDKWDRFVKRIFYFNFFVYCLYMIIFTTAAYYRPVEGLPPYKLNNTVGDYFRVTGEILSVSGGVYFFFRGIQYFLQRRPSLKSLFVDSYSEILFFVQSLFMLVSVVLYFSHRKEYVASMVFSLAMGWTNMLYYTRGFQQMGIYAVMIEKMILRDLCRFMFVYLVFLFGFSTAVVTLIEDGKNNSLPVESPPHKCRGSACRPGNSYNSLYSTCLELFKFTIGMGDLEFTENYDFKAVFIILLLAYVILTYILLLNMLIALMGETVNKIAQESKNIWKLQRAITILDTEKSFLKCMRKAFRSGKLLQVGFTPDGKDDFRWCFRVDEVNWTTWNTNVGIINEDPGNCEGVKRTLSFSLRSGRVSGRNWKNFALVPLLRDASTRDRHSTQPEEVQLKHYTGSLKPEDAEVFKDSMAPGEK
Chain of Cannabinoid receptor 2 (Mus musculus) (P47936 whole entry): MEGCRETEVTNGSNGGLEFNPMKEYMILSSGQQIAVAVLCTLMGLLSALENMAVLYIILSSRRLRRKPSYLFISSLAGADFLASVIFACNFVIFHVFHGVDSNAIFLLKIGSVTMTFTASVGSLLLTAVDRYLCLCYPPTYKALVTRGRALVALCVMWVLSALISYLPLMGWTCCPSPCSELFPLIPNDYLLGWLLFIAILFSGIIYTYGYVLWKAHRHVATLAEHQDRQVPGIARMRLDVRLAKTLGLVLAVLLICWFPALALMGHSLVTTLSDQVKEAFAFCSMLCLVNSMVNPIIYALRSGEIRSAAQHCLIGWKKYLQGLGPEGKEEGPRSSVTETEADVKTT
Chain of Voltage-gated inwardly rectifying potassium channel KCNH2 (Q12809 whole entry): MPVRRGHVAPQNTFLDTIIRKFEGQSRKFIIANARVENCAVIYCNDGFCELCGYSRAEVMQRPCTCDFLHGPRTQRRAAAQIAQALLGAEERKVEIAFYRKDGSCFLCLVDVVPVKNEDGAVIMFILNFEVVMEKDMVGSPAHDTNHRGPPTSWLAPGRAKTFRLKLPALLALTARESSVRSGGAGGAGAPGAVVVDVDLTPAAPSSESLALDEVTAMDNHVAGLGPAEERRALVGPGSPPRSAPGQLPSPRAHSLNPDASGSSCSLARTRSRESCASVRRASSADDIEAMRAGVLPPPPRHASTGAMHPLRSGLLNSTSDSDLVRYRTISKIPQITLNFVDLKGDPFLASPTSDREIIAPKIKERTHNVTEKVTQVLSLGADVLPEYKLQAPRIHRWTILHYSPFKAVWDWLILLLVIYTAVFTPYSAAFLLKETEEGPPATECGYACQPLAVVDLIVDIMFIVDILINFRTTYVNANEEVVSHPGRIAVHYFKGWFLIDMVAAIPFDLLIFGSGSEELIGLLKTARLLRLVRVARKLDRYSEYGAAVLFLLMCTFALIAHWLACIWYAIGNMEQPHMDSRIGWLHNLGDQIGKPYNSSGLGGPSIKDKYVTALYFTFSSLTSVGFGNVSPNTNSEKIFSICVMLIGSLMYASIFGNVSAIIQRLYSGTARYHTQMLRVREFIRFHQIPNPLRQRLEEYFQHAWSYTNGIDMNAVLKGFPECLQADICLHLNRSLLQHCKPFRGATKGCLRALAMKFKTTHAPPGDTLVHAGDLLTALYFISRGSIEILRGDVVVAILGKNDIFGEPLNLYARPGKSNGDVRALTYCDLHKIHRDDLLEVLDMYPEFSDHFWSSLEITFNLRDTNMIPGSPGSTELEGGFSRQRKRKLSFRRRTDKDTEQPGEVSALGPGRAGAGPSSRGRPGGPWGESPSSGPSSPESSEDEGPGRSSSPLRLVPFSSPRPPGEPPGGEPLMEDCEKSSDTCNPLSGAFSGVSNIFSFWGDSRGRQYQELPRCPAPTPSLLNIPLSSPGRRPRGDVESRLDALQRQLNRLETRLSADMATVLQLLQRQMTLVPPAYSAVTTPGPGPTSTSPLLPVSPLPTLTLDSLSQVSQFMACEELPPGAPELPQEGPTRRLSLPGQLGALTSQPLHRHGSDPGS

Structure (SMILES): CCCCNC(=O)Oc1cccc(-n2ccc(C(N)=O)c2)c1
- IC50 [1]: 240 nM
- Ki [1]: 60 nM

Structure (SMILES): CCCCNC(=O)Oc1cccc(-n2ccc(C(=O)OCCCCCCc3ccccc3)c2)c1
- IC50 [1]: > 200 nM

Structure (SMILES): C#CCCCCCCCCCOC(=O)c1ccn(-c2cccc(OC(=O)NC3CCCCC3)c2)c1
- IC50 [1]: > 10000 nM

Structure (SMILES): NC(=O)c1ccn(-c2cccc(OC(=O)NCCOCCOc3ccc(F)cc3F)c2)c1
- inhibition [2]: Active
- IC50 [1]: 28 nM
- Ki [1]: 7 nM

Structure (SMILES): NC(=O)c1ccn(-c2cccc(OC(=O)NCCOCCOc3ccc(F)cc3)c2)c1
- inhibition [2]: Active
- IC50 [1]: 31 nM
- Ki [1]: 8 nM

Structure (SMILES): C#CCCCCCCCCCNC(=O)Oc1cccc(-n2ccc(C(N)=O)c2)c1
- Activity [3]: Active
- Activity [4]: Active
- Activity [5]: Non-toxic
- Activity [6]: inactive
- Activity [7]: Non-toxic
- Activity [8]: Non-toxic
- Activity [9]: Non-toxic
- Activity [10]: Non-toxic
- Activity [11]: Non-toxic
- Activity [12]: Toxic
- Activity [13]: Toxic
- Activity [14]: Toxic
- inhibition [15]: inactive
- inhibition [16]: inactive
- inhibition [17]: inactive
- Activity [18]: inactive
- Activity [19]: inactive
- Activity [20]: inactive
- IC50 [1]: 0.67 nM
- Ki [1]: 0.18 nM

Structure (SMILES): NC(=O)c1ccn(-c2cccc(OC(=O)NCCOCCOc3ccccc3)c2)c1
- IC50 [1]: 87 nM
- Ki [1]: 23 nM

Structure (SMILES): Cc1oc(-c2cccc(OC(=O)NC3CCCCC3)c2)cc1C(N)=O
- IC50 [1]: > 200 nM

Structure (SMILES): NC(=O)c1cccc(-c2cccc(OC(=O)NCCCCCCc3ccccc3)c2)c1
- IC50 [21]: 36 nM
- IC50 [1]: 14 nM

Structure (SMILES): C#CCCCCCCCCCOC(=O)c1ccn(-c2cccc(OC(=O)NCCCCCCc3ccccc3)c2)c1
- IC50 [1]: > 200 nM

Structure (SMILES): NC(=O)c1ccn(-c2cccc(OC(=O)NCCCCCCc3ccccc3)c2)c1
- Activity [3]: Active
- Activity [4]: Active
- Activity [5]: Non-toxic
- Activity [6]: inactive
- Activity [7]: Non-toxic
- Activity [8]: Toxic
- Activity [9]: Non-toxic
- Activity [10]: Toxic
- Activity [11]: Toxic
- Activity [12]: Toxic
- Activity [13]: Toxic
- Activity [14]: Toxic
- IC50 [22]: > 10000 nM
- inhibition [15]: inactive
- inhibition [16]: inactive
- inhibition [17]: inactive
- Activity [18]: inactive
- Activity [19]: inactive
- Activity [20]: inactive
- inhibition [23]: Active
- inhibition [2]: Active
- IC50 [1]: 0.6 nM
- Ki [1]: 0.16 nM

Structure (SMILES): Cc1cc(C(=O)NCCCCCCc2ccccc2)c(-c2cccc(OC(=O)NC3CCCCC3)c2)n1Cc1ccccc1
- IC50 [1]: > 200 nM

Structure (SMILES): O=C(CCCCCCc1ccccc1)c1ncc(-c2ccccn2)o1
- inhibition [2]: Active

Structure (SMILES): CCCCNC(=O)Oc1cccc(-c2oc(C)cc2C(N)=O)c1
- IC50 [1]: 530 nM
- Ki [1]: 140 nM
